Test results as given in patent US20240218016A1, “PEPTIDES AND THEIR USE IN THE TREATMENT OF INFLAMMATION” (Shenzhen Institutes of Advanced Technology, priority 2019, published 2024).
Where no end group is shown, it is not given here. [ ]: non-standard residue; d: D form. The star is where a group is joined. Dihydrocaffeoyl = O=C(CCc1ccc(O)c(O)c1)*; Dopa = N[C@@H](Cc1ccc(O)c(O)c1)C(=O)O; Hyp = O=C(O)[C@@H]1C[C@@H](O)CN1

Tested on: xylene-induced ear swelling
Experiment: Mouse ear swelling model (xylene-induced)
Format: in vivo, BALB/c mice
Details: for Swelling rate: (right ear weight - left ear weight)/left ear weight x 100, about 0.1 g gel (peptide 0.5 mg/g) or Dex cream on right ear 1 hour before 20 μL xylene, ears taken 40 minutes after xylene, 5 mice per group; for anti-inflammatory effects compared with the other peptides tested: xylene mouse ear swelling, topical gels 0.5 mg/g
Protocol: 35 Health male BALB/c mice with 6-8 weeks old and average body weight of 18-25 g were supplied from Changzhou Cvens Experimental Animal Co., Ltd. and housed and cared for about 1 week prior to the experiment. The housing temperature was around 25 to 27 ° C. with 74% humidity, alternating 12-hour periods of light and darkness, and free access to food and water. The mice were randomly divided into 7 groups as described in Table 5 below, with 5 mice in each group. [table] Dexamethasone acetate cream (Dex cream; 5 mg/10 g (which means that there was 5 mg Dex contained in 10 g of the cream), Fuyuan Pharmaceutical Co. Ltd., Anhui, China) was used as positive control. The left ear of each mouse was used as an autologous control. The right ear of each mouse was treated with the above compounds in the stated concentrations. About 0.1 g of the various gels, and Dex cream were applied to the right ear of mice in each group, both inside and outside. The blank gel base was applied on the ears in the model groups. After 1 hour, 20 μL of xylene (Shanghai Aladdin Bio-Chem Technology Co., Ltd.) was applied to the same ear of each mouse. The mice were sacrificed by cervical dislocation 40 minutes after xylene application. The left and right ears were cut off. An EMS skin biopsy punch with a diameter of 8 mm was used to take a piece of the ear from the same site on both ears. The weights were recorded, and the swelling rate was calculated as a percentage according to the following formula: (right ear weight−left ear weight)/left ear weight×100

Row | Substance | Swelling rate | anti-inflammatory effects compared with the other peptides tested
1 | 18 (Dihydrocaffeoyl-AKPS[Dopa][Hyp][Hyp]T[Dopa]K) [compound 18] | 57% | 
2 | 58 (KAKPS[Dopa][Hyp][Hyp]T-dopamine) [compound 58] | 43% | stronger than the other peptide compounds tested
3 | 22 (Dihydrocaffeoyl-KPS[Dopa][Hyp]TA[Hyp]K) [compound 22] | 40% | stronger than the other peptide compounds tested
4 | 15 (Dihydrocaffeoyl-AKPS[Dopa][Hyp]T[Dopa][Hyp]K) [compound 15] | 63% | 
